Experimental findings from ChEMBL document CHEMBL1128388, “Ocular delivery of the beta-adrenergic antagonist alprenolol by sequential bioactivation of its methoxime analogue” (J Med Chem, 1995) are described below.

Data set [1] relates to Oryctolagus cuniculus. Put plainly: Average IOP after administration was determined. Format: functional.
Data set [2] relates to Oryctolagus cuniculus. Put plainly: Compound was tested for decrease in IOP for 2-3 h (in vivo); Significant reduction was observed. Type of data set: functional, organism-based.
Data set [3] in a line: Time within which only 10% of the drug was degraded. Type of data set: ADME. As to conditions: pH 4.50, room temperature.
Data set [4] concerns Oryctolagus cuniculus. In words: Compound was tested for decrease in IOP (in vivo); 18% reduction of the control 21.4+/-0.3 mmHg. Format: functional.

SMILES strings stand for the structures. The source made the active and inactive calls. The calls are words filed in the database; no cut-off is given here.

As for `C=CCc1ccccc1OCC(O)CNC(C)C` (configuration not stated) [ALPRENOLOL], in the data set on Oryctolagus cuniculus [1], the “Average IOP” value is 20.6 mmHg. Besides, in the data set on Oryctolagus cuniculus [2], the result was Active.

For `C=CCc1ccccc1OC/C(CNC(C)C)=N\O`, the “Average IOP” value in the data set on Oryctolagus cuniculus [1] was determined as 21.8 mmHg. The same molecule yielded a t0.9 in data set [3] of 44 days.

On to `C=CCc1ccccc1OC/C(CNC(C)C)=N\OC`, for which, in the data set on Oryctolagus cuniculus [1], the “Average IOP” value amounted to 21.4 mmHg. In addition, the Activity with Oryctolagus cuniculus [4] is on record as 3.8 mmHg. The molecule further yielded a t0.9 in data set [3] of 75 days.
